Substitutions are numbered along the chain they refer to. pEC50: −log10 of the molar value. Like-named read-outs stand apart in the source and are kept apart here.
Tests used:
human M1 = molecular target: T1, human M1 (Homo sapiens, UniProt P11229); assay: M1 PAM assay (FLIPR intracellular calcium), human M1; assay type: cell-based
T1 construct: expressed in transfected cells; host or cells: CHO cells
T1 sequence (P11229 1-460): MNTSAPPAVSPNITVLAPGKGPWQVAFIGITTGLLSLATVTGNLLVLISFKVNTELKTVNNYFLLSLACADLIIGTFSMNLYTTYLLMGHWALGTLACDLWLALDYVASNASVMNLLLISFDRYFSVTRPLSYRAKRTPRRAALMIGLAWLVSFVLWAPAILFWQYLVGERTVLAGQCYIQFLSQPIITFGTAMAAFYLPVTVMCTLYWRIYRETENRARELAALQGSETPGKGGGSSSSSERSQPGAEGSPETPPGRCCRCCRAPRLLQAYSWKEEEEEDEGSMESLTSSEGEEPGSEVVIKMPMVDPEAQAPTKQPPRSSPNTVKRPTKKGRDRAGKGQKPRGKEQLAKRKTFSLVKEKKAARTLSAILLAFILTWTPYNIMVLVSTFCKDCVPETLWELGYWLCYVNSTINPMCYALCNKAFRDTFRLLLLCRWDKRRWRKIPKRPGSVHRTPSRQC
Outline: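 CHO cells expressing M1, Fluo-4AM-loaded, in HEPES/probenecid HBSS pH 7.4, 1% DMSO final. Compounds pre-incubated 2 min for agonist activity versus 30 nM acetylcholine control. For PAM activity, acetylcholine EC20 added after the 2 min pre-incubation, then 2 min more before FLIPR intracellular Ca2+ read.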

ratM1 = molecular target: T2, ratM1 (Rattus norvegicus, UniProt P08482); assay: M1 PAM assay (FLIPR intracellular calcium), rat M1; assay type: cell-based
T2 construct: expressed in transfected cells; host or cells: CHO cells (stated generally for the assay, not specifically for rat M1)
T2 sequence (P08482 1-460): T1 sequence (P11229 1-460) with A5V, T254S, P309S, R320K, A337G, I413V

[1] = CHO human M1 cells, FLIPR Ca2+, with EC20 of acetylcholine, first value of the cell, read-out: hM1 EC50
[2] = rat M1, FLIPR Ca2+, second value of the cell, read-out: ratM1 EC50

Compound: CNC(=O)c1ccc(Cn2cc(C(=O)NC3CCOC(C)(C)C3)c3c(F)cccc32)cc1 (stereo not shown) [Example 119, N-(2,2-dimethyloxan-4-yl)-4-fluoro-1-[[4-(methylcarbamoyl)phenyl]methyl]indole-3-carboxamide]
- pEC50 (human M1; [1]): 8.22
- pEC50 (ratM1; [2]): 7.92

Compound: CCc1ccc(F)c2c(C(=O)NC3CCOCC3)cn(Cc3ccc4c(cnn4C)c3)c12 [Example 128, 7-ethyl-4-fluoro-1-((1-methyl-1H-indazol-5-yl)methyl)-N-(tetrahydro-2H-pyran-4-yl)-1H-indole-3-carboxamide]
- pEC50 (human M1): 6.54
- pEC50 (ratM1): 5.91

Compound: O=C(N[C@H]1CCCC[C@@H]1O)c1cn(Cc2ccc(-c3nc[nH]n3)cc2)c2cccc(F)c12 [Example 156, 1-(4-(1H-1,2,4-triazol-3-yl)benzyl)-4-fluoro-N-((1S,2S)-2-hydroxycyclohexyl)-1H-indole-3-carboxamide]
- pEC50 (human M1; [1]): 8.52
- pEC50 (ratM1; [2]): 8.00

Compound: O=C(NC1CCOCC1)c1cn(Cc2ccc(-c3nc[nH]n3)cc2)c2cccc(F)c12 [Example 157, 1-(4-(1H-1,2,4-triazol-3-yl)benzyl)-4-fluoro-N-(tetrahydro-2H-pyran-4-yl)-1H-indole-3-carboxamide]
- pEC50 (human M1; [1]): 7.02
- pEC50 (ratM1; [2]): 6.93

Compound: NC(=O)Cc1ccc(Cn2cc(C(=O)N[C@H]3CCCC[C@@H]3O)c3c(F)cccc32)cc1 [Example 80, 1-(4-(2-amino-2-oxoethyl)benzyl)-4-fluoro-N-((1S,2S)-2-hydroxycyclohexyl)-1H-indole-3-carboxamide]
- pEC50 (human M1; [1]): 6.96
- pEC50 (ratM1; [2]): 6.58

Compound: CNC(=O)c1ccc(Cn2cc(C(=O)NC3CCSCC3)c3c(F)cccc32)cc1 [Example 124, 4-fluoro-1-[[4-(methylcarbamoyl)phenyl]methyl]-N-(thian-4-yl)indole-3-carboxamide]
- pEC50 (human M1; [1]): 7.96
- pEC50 (ratM1; [2]): 7.62

Compound: Cn1cc(-c2ccc(Cn3cc(C(=O)NC4CCCOC4)c4c(F)cccc43)c(F)c2)cn1 (stereo not shown) [Example 19, 4-fluoro-1-(2-fluoro-4-(1-methyl-1H-pyrazol-4-yl)benzyl)-N-(tetrahydro-2H-pyran-3-yl)-1H-indole-3-carboxamide]
- pEC50 (human M1; [1]): 6.64
- pEC50 (ratM1; [2]): 6.24

Compound: O=C(N[C@H]1CCCC[C@@H]1O)c1cn(CC2CCN(c3ccncn3)CC2)c2cccc(F)c12 [Example 143, 4-fluoro-N-((1S,2S)-2-hydroxycyclohexyl)-1-((1-(pyrimidin-4-yl)piperidin-4-yl)methyl)-1H-indole-3-carboxamide]
- pEC50 (human M1; [1]): 6.39
- pEC50 (ratM1; [2]): 5.97

Compound: CNC(=O)c1ccc(Cn2cc(C(=O)NC3CCOCC3)c3c(F)cccc32)cn1 [Example 147, 4-fluoro-1-((6-(methylcarbamoyl)pyridin-3-yl)methyl)-N-(tetrahydro-2H-pyran-4-yl)-1H-indole-3-carboxamide]
- pEC50 (human M1; [1]): 6.71
- pEC50 (ratM1; [2]): 6.49

Compound: O=C(N[C@H]1CCCC[C@@H]1O)c1cn(Cc2ccc3nccn3c2)c2cccc(F)c12 [Example 145, 4-fluoro-N-((1S,2S)-2-hydroxycyclohexyl)-1-(imidazo[1,2-a]pyridin-6-ylmethyl)-1H-indole-3-carboxamide]
- pEC50 (human M1): 7.77
- pEC50 (ratM1): 7.44

Compound: CNC(=O)c1ccc(Cn2cc(C(=O)N[C@H]3CCCC[C@@H]3O)c3c(F)cccc32)cc1F [Example 88, 4-fluoro-1-(3-fluoro-4-(methylcarbamoyl)benzyl)-N-((1S,2S)-2-hydroxycyclohexyl)-1H-indole-3-carboxamide]
- pEC50 (human M1; [1]): 7.84
- pEC50 (ratM1; [2]): 7.80

Compound: CNC(=O)c1ccc(Cn2cc(C(=O)N[C@H]3CCCC[C@@H]3O)c3c(F)cccc32)cn1 [Example 87, 4-fluoro-N-((1S,2S)-2-hydroxycyclohexyl)-1-((6-(methylcarbamoyl)pyridin-3-yl)methyl)-1H-indole-3-carboxamide]
- pEC50 (human M1; [1]): 7.13
- pEC50 (ratM1; [2]): 6.92

Compound: CNC(=O)c1ccc(Cn2cc(C(=O)NC3CCC(F)(F)CC3)c3c(F)cccc32)cc1 [Example 117, N-(4,4-difluorocyclohexyl)-4-fluoro-1-[[4-(methylcarbamoyl)phenyl]methyl]indole-3-carboxamide]
- pEC50 (human M1; [1]): 7.85
- pEC50 (ratM1; [2]): 7.54

Compound: Cn1cc(-c2ccc(Cn3cc(C(=O)N[C@H]4CCC[C@H]4O)c4c(F)cccc43)c(F)c2)cn1 [Example 24, 4-fluoro-1-(2-fluoro-4-(1-methyl-1H-pyrazol-4-yl)benzyl)-N-((1S,2R)-2-hydroxycyclopentyl)-1H-indole-3-carboxamide]
- pEC50 (human M1; [1]): 7.33
- pEC50 (ratM1; [2]): 7.07

Compound: O=C(N[C@H]1CCOC[C@@H]1O)c1cn(Cc2ccc(N3CCCC3=O)cc2)c2cccc(F)c12 [Example 84, 4-fluoro-N-((3R,4S)-3-hydroxytetrahydro-2H-pyran-4-yl)-1-(4-(2-oxopyrrolidin-1-yl)benzyl)-1H-indole-3-carboxamide]
- pEC50 (human M1; [1]): 6.74
- pEC50 (ratM1; [2]): 6.77

Compound: O=C(N[C@H]1CCCC[C@@H]1O)c1cn(Cc2cc(F)cc(F)c2)c2cccc(F)c12 [Example 43, 1-(3,5-difluorobenzyl)-4-fluoro-N-((1S,2S)-2-hydroxycyclohexyl)-1H-indole-3-carboxamide]
- pEC50 (human M1): 6.31
- pEC50 (ratM1): 6.20

Compound: Cn1cc(-c2ccc(Cn3cc(C(=O)NCC4(O)CC4)c4c(F)cccc43)c(F)c2)cn1 [Example 97, 4-fluoro-1-(2-fluoro-4-(1-methyl-1H-pyrazol-4-yl)benzyl)-N-((1-hydroxycyclopropyl)methyl)-1H-indole-3-carboxamide]
- pEC50 (human M1; [1]): 6.33
- pEC50 (ratM1; [2]): 5.72

Compound: Cc1ccc(F)c2c(C(=O)NC3CCOCC3)cn(Cc3ccc4c(cnn4C)c3)c12 [Example 134, 4-fluoro-7-methyl-1-((1-methyl-1H-indazol-5-yl)methyl)-N-(tetrahydro-2H-pyran-4-yl)-1H-indole-3-carboxamide]
- pEC50 (human M1): 7.60
- pEC50 (ratM1): 7.12

Compound: Cn1cc(-c2ccc(Cn3cc(C(=O)N[C@H]4CCCC[C@@H]4O)c4c(F)c(F)c(F)c(F)c43)cn2)cn1 [Example 27, 4,5,6,7-tetrafluoro-N-((1S,2S)-2-hydroxycyclohexyl)-1-((6-(1-methyl-1H-pyrazol-4-yl)pyridine-3-yl)methyl)-1H-indole-3-carboxamide]
- pEC50 (human M1; [1]): 7.25
- pEC50 (ratM1; [2]): 7.09

Compound: Cn1cc(-c2ccc(Cn3cc(C(=O)NCC4CCO4)c4c(F)cccc43)cc2)cn1 (stereo not shown) [Example 14, 4-fluoro-1-(4-(1-methyl-1H-pyrazol-4-yl)benzyl)-N-(oxetan-2-ylmethyl)-1H-indole-3-carboxamide]
- pEC50 (human M1; [1]): 6.92
- pEC50 (ratM1; [2]): 6.70

Compound: COc1ccc(Cn2cc(C(=O)N[C@H]3CCCC[C@@H]3O)c3c(F)cccc32)cc1F [Example 33, 4-fluoro-1-(3-fluoro-4-methoxybenzyl)-N-((1S,2S)-2-hydroxycyclohexyl)-1H-indole-3-carboxamide]
- pEC50 (human M1): 6.98
- pEC50 (ratM1): 6.65

Compound: Cn1cc(-c2ccc(Cn3cc(C(=O)NC4CCCOC4)c4c(F)cccc43)cc2)cn1 (stereo not shown) [Example 12, 4-fluoro-1-(4-(1-methyl-1H-pyrazol-4-yl)benzyl)-N-(tetrahydro-2H-pyran-3-yl)-1H-indole-3-carboxamide]
- pEC50 (human M1; [1]): 6.89
- pEC50 (ratM1; [2]): 6.40

Compound: Cc1ccc(F)c2c(C(=O)N[C@H]3CCCC[C@@H]3O)cn(Cc3ccc(-c4cnn(C)c4)cc3)c12 [Example 46, 4-fluoro-N-((1S,2S)-2-hydroxycyclohexyl)-7-methyl-1-(4-(1-methyl-1H-pyrazol-4-yl)benzyl)-1H-indole-3-carboxamide]
- pEC50 (human M1; [1]): 7.99
- pEC50 (ratM1; [2]): 7.65

Compound: Cc1ccc(F)c2c(C(=O)NC3CCCOC3)cn(Cc3ccc(-c4cnn(C)c4)cc3)c12 (stereo not shown) [Example 48, 4-fluoro-7-methyl-1-(4-(1-methyl-1H-pyrazol-4-yl)benzyl)-N-(tetrahydro-2H-pyran-3-yl)-1H-indole-3-carboxamide]
- pEC50 (human M1; [1]): 6.60
- pEC50 (ratM1; [2]): 6.28

Compound: Cn1cc(-c2ccc(Cn3cc(C(=O)N[C@H]4COCC[C@@H]4O)c4c(F)cccc43)c(F)c2)cn1 [Example 22, 4-fluoro-1-(2-fluoro-4-(1-methyl-1H-pyrazol-4-yl)benzyl)-N-((3S,4S)-4-hydroxytetrahydro-2H-pyran-3-yl)-1H-indole-3-carboxamide]
- pEC50 (human M1; [1]): 7.75
- pEC50 (ratM1; [2]): 7.22

Compound: Cn1cc(-c2ccc(Cn3cc(C(=O)NC4CCOCC4)c4c(F)cccc43)cc2)cn1 [Example 65, Fluoro-1-(4-(1-methyl-1H-pyrazol-4-yl)benzyl)-N-(tetrahydro-2H-pyran-4-yl)-1H-indole-3-carboxamide]
- pEC50 (human M1; [1]): 7.49
- pEC50 (ratM1; [2]): 7.22

— patent US9708259B2 (Hoffmann-La Roche Inc., priority 2013, dated 2017)
